Measurements taken from US9629786B2, “Monoterpene derivatives of chalcone or dihydrochalcone and their use as depigmenting agents” (PIERRE FABRE DERMO-COSMETIQUE, priority 2011, dated 2017).
pIC50: −log10 of the molar value.

Columns and labels:
[1] = molecular target: fungal tyrosinase; details: monophenoloxidase activity on fungal tyrosinase; cited from earlier work
[2] = system: plasmodial; details: cited from earlier work
[3] = system: cancer cell line (lung); details: cited from earlier work
[4] = system: murine melanoma cell line B16-F10; test: Inhibition of melanin synthesis, colorimetric assay on B16-F10; type: cell-based; details: Mus musculus, B16-F10 cells
Excerpt: Pharmacological Testing: Inhibition of Melanin Synthesis:
We have developed a test for measuring melanin synthesis by using a colorimetric assay on the murine melanoma cell line B16-F10. This assay enables to test the depigmenting power of active ingredients.

[5] = Stability of chalcone (cyclization to flavanone); type: physicochemical; details: for stability (cyclization to flavanone): purified / pure form
Excerpt: More preferably, ? is a double bond, R1=H and R2=OH, that is to say the extract according to the invention is enriched with gymnochalcone. […] In fact, cyclization of chalcones to flavanone, upon addition of a hydroxyl group on 1,4-position in the carbonyl group by a Michael type reaction, which brings about instability of the chalcones, is not observed in this case.
Thus preferably gymnochalcone will be used in the form of an extract of Helichrysum gymnocephalum.

| pIC50 [4] | stability (cyclization to flavanone) [5] | Structure (SMILES) | further results |
| --- | --- | --- | --- |
|  |  | O=C(/C=C/c1ccccc1)c1c(O)cc(O)cc1O [2′,4′,6′-Trihydroxychalcone (II), 2′,4′,6′-Trihydroxychalcone] | pIC50 [1]: 3.92 |
|  |  | COc1cc(O)c(C(=O)CCc2ccccc2)c(O)c1[C@H]1C=C(C)CC[C@@H]1C(C)C [(−)-Methyl-linderatin] | anti-plasmodial activity [2]: anti-plasmodial activity |
|  |  | CC1=C[C@H](c2c(O)cc(O)c(C(=O)CCc3ccccc3)c2O)[C@H](C(C)C)CC1 [(−)-linderatin] | cytotoxicity [3]: exhibited cytotoxicity |
| 3.80 |  | OC[C@H]1O[C@@H](Oc2ccc(O)cc2)[C@H](O)[C@@H](O)[C@@H]1O [Arbutin, reference compound] |  |
| 4.77 | cyclization is observed | CC1=CC(c2c(O)cc(O)c(C(=O)/C=C/c3ccccc3)c2O)C(C(C)(C)O)CC1 (stereo not shown) [Gymnochalcone, gymnochalcone] | stability in time ([5]; in the extract of Helichrysum gymnocephalum): stable in time |
| 4.51 |  | COc1ccc(O)cc1 [Hydroquinone monomethyl ether, reference compound] |  |
| 2.62 |  | O=c1cc(CO)occ1O [Kojic acid, reference compound] |  |
| 5.30 | stable in such form | CC1=CC(c2c(O)cc(O)c(C(=O)CCc3ccccc3)c2O)C(C(C)C)CC1 (stereo not shown) [Linderatin, linderatin] |  |
| 5.22 | stable in such form | COc1cc(O)c(C(=O)CCc2ccccc2)c(O)c1C1C=C(C)CCC1C(C)C (stereo not shown) [Methyllinderatin, methyllinderatin] |  |
